For one molecule, melting point results are on record in patent US7741363B2, “3-Acylindole derivatives, preparation and therapeutic use thereof” (Sanofi-Aventis, priority 2005, dated 2010).

Regarding `Cc1c(C(=O)CC(C)(C)C)c2cccc(Cl)c2n1CCC[S+](C)[O-]` (stereo not shown), the melting point stood at 123 °C.

The term melting point denotes the temperature of the solid-liquid transition.
